Test results: patent publication US20100305074A1, “NIACIN-BASED PHARMACEUTICAL COMPOSITIONS” (priority 2007, published 2010)

Key:
[1] = test system: patients with debilitating flushing on sustained-release niacin therapy; test: Prevention of flushing in patients on sustained-release niacin therapy (Examples 1 and 3); type: in vivo, human; settings: thirteen patients initiating sustained-release niacin; Aspirin 81 mg for prevention of flushing
[2] = test system: men with low HDL and coronary artery disease; settings: in combination with other lipid medications; HATS trial, N Engl J Med 345:1583-1592; cited from earlier work
[3] = test system: patients with niacin-induced pruritis; test: Treatment of niacin-induced pruritis with an H-1 blocking agent (Example 6); type: in vivo, human; settings: among the seven successful patients; morning dosing (cetrizine, fexofenadine) or evening dosing (diphenhydramine)
Procedure: Nine patients with niacin-induced pruritis were treated by recommending an H-1 blocking agent.

[4] = test system: patients who developed hyperuricemia while on niacin therapy; test: Hyperuricemia on niacin therapy controlled with allopurinol (Example 7); settings: daily dosing 25 to 200 mg to control hyperuricemia
Procedure: Two females and 15 males were given allopurinol to control the hyperuricemia (daily dosing ranged from 25 to 200 mg).

SMILES | effect on niacin-induced pruritis [3] | further results
CC(=O)Oc1ccccc1C(=O)O [Aspirin] | – | flushing despite prevention [1]: continued to have debilitating flushing
O=C(O)c1cccnc1 [niacin, 3-pyridinecarboxylic acid] | – | lowering of the incidence of cardiovascular events (heart attacks, strokes, and sudden death) [2]: 60-90%
CC(C)(C(=O)O)c1ccc(C(O)CCCN2CCC(C(O)(c3ccccc3)c3ccccc3)CC2)cc1 (stereo not drawn) [fexofenadine] | resolution of pruritis | –
O=C(O)COCCN1CCN(C(c2ccccc2)c2ccc(Cl)cc2)CC1 (stereo not drawn) [cetrizine] | resolution of pruritis | –
CN(C)CCOC(c1ccccc1)c1ccccc1 [diphenhydramine] | resolution of pruritis | –
Oc1ncnc2[nH]ncc12 [allopurinol] | – | continuation of niacin therapy [4]: All were able to continue niacin therapy
